Test results taken from patent US7605269B2, “Thiophene derivatives as Sphingosine-1-phosphate-1 receptor agonists” (Actelion Pharmaceuticals Ltd., priority 2005, dated 2009).

Key:
[1] = biological target: recombinant human S1P1 receptor (Homo sapiens, UniProt P21453); experiment: GTPγS assay to determine EC50 values; assay type: biochemical; conditions: 35S-GTPγS binding, membrane preparations of CHO cells expressing recombinant human S1P1 receptor
Procedure: The pH is 7.4. Test compounds are dissolved and diluted in 100% DMSO and pre-incubated at room temperature for 30 min in 150 μl of the above assay buffer, in the absence of ^35S-GTPγS. After addition of 50 μl of ^35S-GTPγS, the assay is incubated for 1 h at room temperature. […] Membrane-bound ^35S-GTPγS is measured with a TopCount from Packard Biosciences.
Specific binding is determined by subtracting non-specific binding from maximal binding. Maximal binding is the amount of cpm bound to the Multiscreen plate in the presence of 10 μM of S1P. Non-specific binding is the amount of binding in the absence of an agonist in the assay.

circulating lymphocytes = experiment: Assessment of in vivo efficacy: circulating lymphocytes after oral administration; parameters: species or system rat; conditions: 6 h after oral administration of 10 mg/kg, normotensive male Wistar rats, compared to vehicle-treated group
Procedure: The efficacy of the compounds of Formula (I) is assessed by measuring the circulating lymphocytes after oral administration of 3 to 30 mg/kg of a compound of Formula (I) to normotensive male Wistar rats. The animals are housed in climate-controlled conditions with a 12 h-light/dark cycle, and have free access to normal rat chow and drinking water. Blood is collected before and 3, 6 and 24 h after drug administration. Full blood is subjected to hematology using Advia Hematology system (Bayer Diagnostics, Zurich, Switzerland).
All data are presented as mean ±SEM. Statistical analyses are performed by analysis of variance (ANOVA) using Statistica (StatSoft) and the Student-Newman-Keuls procedure for multiple comparisons. The null hypothesis is rejected when p<0.05.

Sequence of recombinant human S1P1 receptor (P21453 whole entry): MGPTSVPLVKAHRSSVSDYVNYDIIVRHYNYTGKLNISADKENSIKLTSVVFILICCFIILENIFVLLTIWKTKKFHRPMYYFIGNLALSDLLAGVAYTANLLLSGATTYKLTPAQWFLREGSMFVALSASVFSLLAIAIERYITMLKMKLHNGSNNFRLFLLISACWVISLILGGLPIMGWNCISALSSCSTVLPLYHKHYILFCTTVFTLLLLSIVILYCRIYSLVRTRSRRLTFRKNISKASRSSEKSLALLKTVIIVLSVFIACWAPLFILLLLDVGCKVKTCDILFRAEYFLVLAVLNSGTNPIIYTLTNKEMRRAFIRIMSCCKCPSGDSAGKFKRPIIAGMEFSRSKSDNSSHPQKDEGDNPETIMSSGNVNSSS

SMILES | EC50 [1] [nM] | Lymphocyte counts (circulating lymphocytes) [%]
Cc1sc(-c2nc(-c3ccc(OC[C@H](O)CO)cc3)no2)c2c1[C@H]1[C@@H](C2)C1(C)C [Example 6, (2R)-3-{4-[5-((1aS,5aR)-1,1,2-trimethyl-1,1a,5,5a-tetrahydro-3-thia-cyclopropa[a]pentalen-4-yl)-[1,2,4]oxadiazol-3-yl]-phenoxy}-propane-1,2-diol] | 12 | 
Cc1cc(-c2noc(-c3sc(C)c4c3C[C@@H]3[C@H]4C3(C)C)n2)cc(C)c1OCC(CO)CO [Example 19, 2-{2,6-dimethyl-4-[5-((1aS,5aR)-1,1,2-trimethyl-1,1a,5,5a-tetrahydro-3-thia-cyclopropa[a]pentalen-4-yl)-[1,2,4]oxadiazol-3-yl]-phenoxymethyl}-propane-1,3-diol] | 1.2 | −56
Cc1cc(-c2noc(-c3sc(C)c4c3C[C@@H]3[C@H]4C3(C)C)n2)cc(C)c1OCCCN [Example 24, 3-{2,6-dimethyl-4-[5-((1aS,5aR)-1,1,2-trimethyl-1,1a,5,5a-tetrahydro-3-thia-cyclopropa[a]pentalen-4-yl)-[1,2,4]oxadiazol-3-yl]-phenoxy}-propylamine] | 4.8 | 
Cc1cc(-c2noc(-c3sc(C)c4c3C[C@@H]3[C@H]4C3(C)C)n2)cc(C)c1OCCCNCCO [Example 27, 2-(3-{2,6-dimethyl-4-[5-((1aS,5aR)-1,1,2-trimethyl-1,1a,5,5a-tetrahydro-3-thia-cyclopropa[a]pentalen-4-yl)-[1,2,4]oxadiazol-3-yl]-phenoxy}-propylamino)-ethanol] | 6.1 | 
Cc1cc(-c2noc(-c3sc(C)c4c3C[C@@H]3[C@H]4C3(C)C)n2)cc(C)c1OCCCN1CCCC1C(=O)O (stereo partly drawn) [Example 32, 1-(3-{2,6-dimethyl-4-[5-((1aS,5aR)-1,1,2-trimethyl-1,1a,5,5a-tetrahydro-3-thia-cyclopropa[a]pentalen-4-yl)-[1,2,4]oxadiazol-3-yl]-phenoxy}-propyl)-pyrrolidine-2-carboxylic acid] | 8.8 | 
Cc1cc(-c2nc(-c3sc(C)c4c3C[C@@H]3[C@H]4C3(C)C)no2)cc(C)c1O [Example 38, 2,6-dimethyl-4-[3-((1aS,5aR)-1,1,2-trimethyl-1,1a,5,5a-tetrahydro-3-thia-cyclopropa[a]pentalen-4-yl)-[1,2,4]oxadiazol-5-yl]-phenol] | 1.6 | 
Cc1cc(-c2nc(-c3sc(C)c4c3C[C@@H]3[C@H]4C3(C)C)no2)cc(C)c1OCCO [Example 39, 2-{2,6-dimethyl-4-[3-((1aS,5aR)-1,1,2-trimethyl-1,1a,5,5a-tetrahydro-3-thia-cyclopropa[a]pentalen-4-yl)-[1,2,4]oxadiazol-5-yl]-phenoxy}-ethanol] | 1.1 | 
Cc1cc(-c2nc(-c3sc(C)c4c3C[C@@H]3[C@H]4C3(C)C)no2)cc(C)c1OCC(CO)CO [Example 43, 2-{2,6-dimethyl-4-[3-((1aS,5aR)-1,1,2-trimethyl-1,1a,5,5a-tetrahydro-3-thia-cyclopropa[a]pentalen-4-yl)-[1,2,4]oxadiazol-5-yl]-phenoxymethyl}-propane-1,3-diol] | 1.4 | 
